Data published in article PMC10530836, “Synthesis, Molecular Docking, and Biological Evaluation of Novel Anthranilic Acid Hybrid and Its Diamides as Antispasmodics” (International Journal of Molecular Sciences, 2023).

Assays:
Type in all cases: cell-based
[1] = test system: Candida albicans NBIMCC 74; assay: Antimicrobial activity, agar well diffusion; settings: Dose 0.6 mg/disk, dwell = 6 mm
In short: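 Agar well diffusion: L. monocytogenes cells on LBG agar at 37 °C and C. albicans on MEA at 37 °C (10^8 cfu/mL), A. niger and Rhizopus spores on MEA at 30 °C (10^5 cfu/mL), seeded into the agar. 60 μL of extract went into 6 mm wells in triplicate. Inhibition zone diameters were read at 24 and 48 h.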

[2] = test system: Fusarium moniliforme ATCC 38932; assay: Antimicrobial activity, agar well diffusion; settings: Dose 0.6 mg/disk, dwell = 6 mm
In short: (§1)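 Inhibition-zone diameter around 6 mm wells holding 60 μL extract, measured at 24 h and 48 h; ≥18 mm counted as sensitive, 12–18 mm moderately sensitive, up to 12 mm or no zone resistant. Fungal spores were at 10^5 cfu/mL on MEA at 30 °C, bacterial and yeast cells at 10^8 cfu/mL.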

[3] = test system: Mucor sp.; assay: Antimicrobial activity, agar well diffusion; settings: Dose 0.6 mg/disk, dwell = 6 mm
In short: as §1

[4] = test system: Saccharomyces cerevisiae ATCC 9763; assay: Antimicrobial activity, agar well diffusion; settings: Dose 0.6 mg/disk, dwell = 6 mm
In short: as §1

[5] = test system: Gram-positive bacteria, Gram-negative bacteria, yeasts and fungi; assay: Antimicrobial activity, whole panel; settings: agar well diffusion
Experimental: In our experiments, six Gram-positive bacteria, six Gram-negative bacteria, two yeasts, and six fungi were used. The hybrid molecule and its diamides were tested in vitro for their antimicrobial activity against human pathogenic bacteria and economically relevant phytopathogenic fungi. The inhibition zones of bacterial and fungal growth caused by the novel compounds are outlined in Table 3. The obtained results were compared to a known antispasmodic mebeverine and its precursors. […]
The antimicrobial activity of the samples was determined by the agar well diffusion method. […]
The inocula of the tested bacteria/yeasts was prepared by homogenization of a small amount of biomass in 5 mL of sterile 0.5% NaCl. […] The number of viable cells and fungal spores was determined using a bacterial counting chamber Thoma (Poly-Optik, GmbH, Bad Blankenburg, Germany). […] Next, the inoculated media were transferred in a quantity of 18 mL in sterile Petri plates (d = 90 mm) (Gosselin™, Hazebrouck, France) and allowed to harden. […]
The antimicrobial activity was determined by measuring the diameter of the inhibition zones around the wells on the 24th and 48th h of incubation. […]

Nc1ccccc1C(=O)NCCc1cccc(Cl)c1 [Compound 3, 2-amino-N-(3-chlorophenethyl)benzamide]
Inhibition Zones [1]: 15 mm
Inhibition Zones [2]: 15 mm
Inhibition Zones [3]: 15 mm
Inhibition Zones [4]: 15 mm
antimicrobial activity (overall, in words) [5]: very good antimicrobial activity
